Measured values from patent publication US10765114B2, “4-amino-6-(pyridyl and 2-substitutedphenyl)-picolinates and 6-amino-2-(pyridyl and 2-substitutedphenyl)-pyrimidine-4-carboxylates and their use as herbicides” (Dow AgroSciences LLC, priority 2013, dated 2020).

Assays:
Assay in all cases: Post-Emergent Test III (Wheat and Barley)
PAPRH (common poppy) = type: in vivo, Papaver rhoeas; conditions: for Visual Growth Reduction (%) 21 Days After Application, PAPRH: PAPRH common poppy (Papaver rhoeas), post-emergent
Experimental: (§1) Seeds of the desired test plant species were planted in Sun Gro MetroMix® 306 planting mixture, which typically has a pH of 6.0 to 6.8 and an organic matter content of about 30 percent, in plastic pots with a surface area of 103.2 square centimeters (cm^2). When required to ensure good germination and healthy plants, a fungicide treatment and/or other chemical or physical treatment was applied. The plants were grown for 7-36 days in a greenhouse with an approximate 14 h photoperiod which was maintained at about 18° C. during the day and 17° C. during the night. Nutrients and water were added on a regular basis and supplemental lighting was provided with overhead metal halide 1000-Watt lamps as necessary. The plants were employed for testing when they reached the second or third true leaf stage.
(§2) A weighed amount, determined by the highest rate to be tested, of each test compound was placed in a 25 mL glass vial and was dissolved in 4 mL of a 97:3 v/v mixture of acetone and DMSO to obtain concentrated stock solutions. […] The concentrated stock solutions obtained were diluted with 20 mL of an aqueous mixture containing acetone, water, isopropyl alcohol, DMSO, Agri-Dex crop oil concentrate, and X-77 surfactant in a 48:39:10:1.5:1.5:0.02 v/v ratio to obtain spray solutions containing the highest application rates. Additional application rates were obtained by serial dilution of 12 mL of the high rate solution into a solution containing 2 mL of 97:3 v/v mixture of acetone and DMSO and 10 mL of an aqueous mixture containing acetone, water, isopropyl alcohol, DMSO, Agri-Dex crop oil concentrate, and X-77 surfactant in a 48:39:10:1.5:1.5:0.02 v/v ratio to obtain ½×, ¼×, ⅛× and 1/16× rates of the high rate. Compound requirements are based upon a 12 mL application volume at a rate of 187 liters per hectare (L/ha). Formulated compounds were applied to the plant material with an overhead Mandel track sprayer equipped with 8002E nozzles calibrated to deliver 187 L/ha over an application area of 0.503 square meters at a spray height of 18 inches (43 cm) above the average plant canopy height. Control plants were sprayed in the same manner with the solvent blank.
(§3) The treated plants and control plants were placed in a greenhouse as described above and watered by subirrigation to prevent wash-off of the test compounds. After 21 dAYS, the condition of the test plants as compared with that of the untreated plants was determined visually and scored on a scale of 0 to 100 percent where 0 corresponds to no injury and 100 corresponds to complete kill and presented as indicated in Table A.
(§4) By applying the well-accepted probit analysis as described by J. Berkson in Journal of the American Statistical Society, 48, 565 (1953) and by D. Finney in “Probit Analysis” Cambridge University Press (1952), herbicidal injury of a specific compound at various rates can be used to calculate GR10, GR20, GR50, GR80 and GR90 values, which are defined as growth reduction factors that correspond to the effective dose of herbicide required to provide plant growth reduction (GR) of 10 percent, 20 percent, 50 percent, 80 percent and 90 percent, respectively. Probit analysis was applied to data collected from multiple dose rates of individual compounds utilizing the procedures explained in the following examples. The analysis of those dose rates is captured in the following tables.

KCHSC (kochia) = type: in vivo, Kochia scoparia
Summary of the method: (§5)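 Injury was rated visually on a 0 to 100 percent scale 21 days after treatment, relative to untreated plants, and probit analysis of multiple dose rates gave growth-reduction values. Plants at the second or third true leaf stage had been track-sprayed at 187 L/ha.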

POLCO (wild buckwheat) = type: in vivo, Polygonum convolvulus; conditions: for Visual Growth Reduction (%) 21 Days After Application, POLCO: POLCO wild buckwheat (Polygonum convolvulus), post-emergent
Experimental: as §1, §2, §3, §4

[1] = test system: LAMPU (purple deadnettle); type: in vivo, Lamium purpureum; conditions: for Visual Growth Reduction (%) 21 Days After Application, LAMPU: LAMPU purple deadnettle (Lamium purpureum), post-emergent
Experimental: as §1, §2, §3, §4

[2] = test system: VERPE (Persian speedwell); type: in vivo, Veronica persica; conditions: for Visual Growth Reduction (%) 21 Days After Application, VERPE: VERPE bird's-eye speedwell (Veronica persica), post-emergent
Experimental: as §1, §2, §3, §4

HORSS = type: in vivo; conditions: crop; for Visual Growth Reduction (%) 21 Days After Application, HORSS: HORSS barley (Hordeum vulgare), post-emergent
Summary of the method: as §5

TRZSS = type: in vivo; conditions: crop; for Visual Growth Reduction (%) 21 Days After Application, TRZSS: TRZSS wheat (Triticum aestivum), post-emergent
Summary of the method: as §5

SASKR (Russian thistle) = type: in vivo, Salsola tragus; conditions: for Visual Growth Reduction (%) 21 Days After Application, SASKR: SASKR Russian thistle (Salsola iberica), post-emergent
Experimental: as §1, §2, §3, §4

With `COC(=O)c1nc(-c2ccc(Br)nc2)c(F)c(N)c1Cl` [Compound 22, methyl 4-amino-6′-bromo-5-chloro-3-fluoro-[2,3′-bipyridine]-6-carboxylate] the “Visual Growth Reduction (%) 21 Days After Application, PAPRH” value (PAPRH (common poppy); 17.5 g ai/ha) was “A (95-100)”, the “Visual Growth Reduction (%) 21 Days After Application, PAPRH” value (PAPRH (common poppy); 35 g ai/ha) was “A (95-100)” and the “Visual Growth Reduction (%) 21 Days After Application, PAPRH” value (PAPRH (common poppy); 70 g ai/ha) was “A (95-100)”. The “GR50, PAPRH” value (PAPRH (common poppy); PAPRH, growth reduction of 50%, probit analysis, 21 days) was 1 g ai/ha, the “GR80, PAPRH” value (PAPRH (common poppy); PAPRH, growth reduction of 80%, probit analysis, 21 days) was 1 g ai/ha and the “GR90, PAPRH” value (PAPRH (common poppy); PAPRH, growth reduction of 90%, probit analysis, 21 days) was 1 g ai/ha. For the same molecule, the pest or weed control at 17.5 g/ha (KCHSC (kochia); Bassia scoparia, post-emergence, 504 h, KCHSC kochia (Kochia scoparia), 17.5 g ai/ha, post-emergent, read-out: Visual Growth Reduction (%) 21 Days After Application, KCHSC) was 95 to 100%, the pest or weed control at 35 g/ha (KCHSC (kochia); Bassia scoparia, post-emergence, 504 h, KCHSC kochia (Kochia scoparia), 35 g ai/ha, post-emergent, read-out: Visual Growth Reduction (%) 21 Days After Application, KCHSC) was 95 to 100% and the pest or weed control at 70 g/ha (KCHSC (kochia); Bassia scoparia, post-emergence, 504 h, KCHSC kochia (Kochia scoparia), 70 g ai/ha, post-emergent, read-out: Visual Growth Reduction (%) 21 Days After Application, KCHSC) was 95 to 100%. The “GR50, KCHSC” value (KCHSC (kochia); KCHSC, growth reduction of 50%, probit analysis, 21 days) was 3 g ai/ha, the “GR80, KCHSC” value (KCHSC (kochia); KCHSC, growth reduction of 80%, probit analysis, 21 days) was 8 g ai/ha and the “GR90, KCHSC” value (KCHSC (kochia); KCHSC, growth reduction of 90%, probit analysis, 21 days) was 14 g ai/ha. For the same molecule, the “Visual Growth Reduction (%) 21 Days After Application, POLCO” value (POLCO (wild buckwheat); 17.5 g ai/ha) was “E (45-59)”, the “Visual Growth Reduction (%) 21 Days After Application, POLCO” value (POLCO (wild buckwheat); 35 g ai/ha) was “E (45-59)” and the “Visual Growth Reduction (%) 21 Days After Application, POLCO” value (POLCO (wild buckwheat); 70 g ai/ha) was “D (60-74)”. For the same molecule, the “GR50, POLCO” value (POLCO (wild buckwheat); POLCO, growth reduction of 50%, probit analysis, 21 days) was 26 g ai/ha, the “GR80, POLCO” value (POLCO (wild buckwheat); POLCO, growth reduction of 80%, probit analysis, 21 days) was greater than 140 g ai/ha and the “GR90, POLCO” value (POLCO (wild buckwheat); POLCO, growth reduction of 90%, probit analysis, 21 days) was greater than 140 g ai/ha. The “Visual Growth Reduction (%) 21 Days After Application, LAMPU” value ([1]; 17.5 g ai/ha) was “A (95-100)”, the “Visual Growth Reduction (%) 21 Days After Application, LAMPU” value ([1]; 35 g ai/ha) was “A (95-100)” and the “Visual Growth Reduction (%) 21 Days After Application, LAMPU” value ([1]; 70 g ai/ha) was “A (95-100)”. The “GR50, LAMPU” value ([1]; LAMPU, growth reduction of 50%, probit analysis, 21 days) was 1 g ai/ha, the “GR80, LAMPU” value ([1]; LAMPU, growth reduction of 80%, probit analysis, 21 days) was 6 g ai/ha and the “GR90, LAMPU” value ([1]; LAMPU, growth reduction of 90%, probit analysis, 21 days) was 11 g ai/ha. The “Visual Growth Reduction (%) 21 Days After Application, VERPE” value ([2]; 17.5 g ai/ha) was “D (60-74)”, the “Visual Growth Reduction (%) 21 Days After Application, VERPE” value ([2]; 35 g ai/ha) was “C (75-84)” and the “Visual Growth Reduction (%) 21 Days After Application, VERPE” value ([2]; 70 g ai/ha) was “A (95-100)”. The “GR50, VERPE” value ([2]; VERPE, growth reduction of 50%, probit analysis, 21 days) was 9 g ai/ha, the “GR80, VERPE” value ([2]; VERPE, growth reduction of 80%, probit analysis, 21 days) was 28 g ai/ha and the “GR90, VERPE” value ([2]; VERPE, growth reduction of 90%, probit analysis, 21 days) was 50 g ai/ha. For the same molecule, the “Visual Growth Reduction (%) 21 Days After Application, HORSS” value (HORSS; 17.5 g ai/ha) was “B (85-94)”, the “Visual Growth Reduction (%) 21 Days After Application, HORSS” value (HORSS; 35 g ai/ha) was “B (85-94)” and the “Visual Growth Reduction (%) 21 Days After Application, HORSS” value (HORSS; 70 g ai/ha) was “A (95-100)”. The “GR10, HORSS” value (HORSS; HORSS barley, growth reduction of 10%, probit analysis, 21 days) was 1 g ai/ha, the “GR20, HORSS” value (HORSS; HORSS barley, growth reduction of 20%, probit analysis, 21 days) was 1 g ai/ha and the “Visual Growth Reduction (%) 21 Days After Application, TRZSS” value (TRZSS; 17.5 g ai/ha) was “C (75-84)”. The “Visual Growth Reduction (%) 21 Days After Application, TRZSS” value (TRZSS; 35 g ai/ha) was “B (85-94)”, the “Visual Growth Reduction (%) 21 Days After Application, TRZSS” value (TRZSS; 70 g ai/ha) was “B (85-94)” and the “GR10, TRZSS” value (TRZSS; TRZSS wheat, growth reduction of 10%, probit analysis, 21 days) was 1 g ai/ha. For the same molecule, the “GR20, TRZSS” value (TRZSS; TRZSS wheat, growth reduction of 20%, probit analysis, 21 days) was 1 g ai/ha, the “Visual Growth Reduction (%) 21 Days After Application, SASKR” value (SASKR (Russian thistle); 17.5 g ai/ha) was “C (75-84)” and the “Visual Growth Reduction (%) 21 Days After Application, SASKR” value (SASKR (Russian thistle); 35 g ai/ha) was “C (75-84)”. For the same molecule, the “Visual Growth Reduction (%) 21 Days After Application, SASKR” value (SASKR (Russian thistle); 70 g ai/ha) was “B (85-94)”, the “GR50, SASKR” value (SASKR (Russian thistle); SASKR, growth reduction of 50%, probit analysis, 21 days) was 5 g ai/ha and the “GR80, SASKR” value (SASKR (Russian thistle); SASKR, growth reduction of 80%, probit analysis, 21 days) was 36 g ai/ha. The “GR90, SASKR” value (SASKR (Russian thistle); SASKR, growth reduction of 90%, probit analysis, 21 days) was 95 g ai/ha.
